Entries after “also recorded” stand apart in the source; their conditions may differ.
Key:
[1] = tested on: Fat/STZ rats; experiment: Fat/STZ rat model, oral NDGA in CMC, PEG or Gelucire vehicles: glucose, triglycerides, FFA; format: in vivo; details: for glucose: versus 366+/−32; for glucose levels: 250 mg/kg twice daily
Method: (§1) In these studies, a variety of rodent models were used to evaluate the glucose-lowering properties and its effects on lipids, such as lowering of triglycerides. NDGA was administered orally to animals over a wide range of doses (10 to 350) mg/kg.
In this experiment, NDGA was dissolved in the following: • CMC: 0.25% carboxymethylcellulose • Gelucire: “Gelucire 44/14 (Gatefosse, Wildwood, N.J.; a well-defined mixture of mono-, di-, and tri-glycerides and mono- and di-fatty acid esters of polyethylene glycol) • PEG: 85% polyethylenene glycol, 10% tween and 5% propanediol
(§2) In this study, the following animal models where used: • Db/db mice: homozygous mice are a model of obesity, diabetes and dyslipedemia where their leptin receptor activity is deficient. • Ob/ob mice: obese mice with diabetes. • Db/lean mice: heterozygous mice that are not diabetic. • Fat/STZ rats: non-genetically diabetic overweight rats that are fed diets enriched in fat and made hyperglycemic by chemically removing their pancreatic function to reduce insulin production by treating them with streptozotocin (STZ). • Fructose/STZ rats: non-diabetic rats that are fed diets enriched in fructose and made hyperglycemic by treating them with STZ. • ZDF rats: obese and hyperglycemic rats with other metabolic disorders.
(§3) Baseline glucose and triglyceride concentrations, where appropriate, were measured for both diabetic and normal animals.

[2] = tested on: Db/db mice; experiment: Glucose lowering in db/db mice; format: in vivo, mouse; details: db/db mice with diabetes, given orally
From the text: as §2, §3

[3] = tested on: Fructose/STZ rats; experiment: Triglyceride and FFA lowering in Fructose/STZ rats; format: in vivo, rat; details: fructose-fed/STZ rats
From the text: as §2
(§4) These reductions in free fatty acid concentration could result from either decreased production (by reduced lipolysis) or increased removal of free fatty acids from the circulation by liver, fat or muscle.

[4] = tested on: fat/STZ rat; experiment: Whole-body insulin-stimulated glucose disposition (SSPG) with constant intravenous glucose/insulin infusion; format: in vivo; details: steady-state plasma insulin held constant
Method: Studies were also conducted to determine the mechanism by which NDGA lowers glucose. To do so, NDGA was administered to determine the effects of NDGA on insulin-stimulated glucose disposition and on basal hepatic glucose production using the high fat diet fed/streptozotocin (STZ) rat model of NIDDM. Whole-body insulin-stimulated glucose disposition was measured using a constant intravenous glucose/insulin infusion, in which the steady-state plasma insulin concentration (SSPI) is held constant and the steady-state plasma glucose concentration (SSPG) is a measure of net glucose clearance. […] In these same studies basal hepatic glucose production was measured using an intravenous infusion of radiolabeled glucose (no insulin was infused).
Studies were conducted to determine the effects of NDGA (masoprocol) on insulin-stimulated glucose disposition and on basal hepatic glucose production using the fat/STZ rat. Whole-body insulin-stimulated glucose disposition was measured using a constant intravenous glucose/insulin infusion, in which the steady-state plasma insulin concentration (SSPI) is held constant and the steady-state plasma glucose concentration (SSPG) is a measure of net glucose clearance.

[5] = tested on: high fat diet-fed/STZ rat model; experiment: Liver and muscle glycogen content after NDGA treatment; format: in vivo
Method: In the high fat diet-fed/STZ rat model, liver and muscle glycogen content was measured after treatment with NDGA versus vehicle. Treatment with NDGA had no effect on muscle glycogen levels when compared to control.

[6] = tested on: fructose-fed and fat-fed/STZ rat models; experiment: NDGA versus metformin at equimolar doses in fructose-fed and fat-fed/STZ rat models; format: in vivo
From the text: NDGA has been studied by administering it orally to animals to determine its effectiveness for lowering glucose, free fatty acid (FFA) and triglyceride levels. […] See Example 2 below. […] There was no significant baseline difference between the NDGA and metformin groups.
In one such study, the effects of NDGA and metformin as a control drug for treatment of diabetes were studied in a non-diabetic model of hypertriglyceridemia (fructose-fed) and a non-genetic, (i.e., streptozotocin (STZ) treated) model of diabetes. […] See FIGS. 2 (glucose) and 3 (triglycerides).

[7] = tested on: rodent models; experiment: Oral NDGA in a variety of rodent models (model not given); format: in vivo
Method: as §1
NDGA was effective at lowering glucose when formulated in either aqueous or lipophilic vehicles to varying degrees of efficacy.

[8] = tested on: fructose-fed hypertriglyceridemic rats; experiment: Fructose-fed hypertriglyceridemic rat model; format: in vivo
From the text: It is likely that the triglyceride-lowering effect of NDGA may also be explained, at least in part, by the suppression of free fatty acid (FFA) release. Free fatty acids in the circulation can enter the liver and can be re-assembled into triglycerides by the process of re-esterification. […] It should be noted that other mechanisms for reducing triglycerides, such as increased triglyceride clearance, are not ruled out by these findings.
as §4

[9] = tested on: Ob/ob mice; experiment: Glucose lowering in ob/ob mice; format: in vivo, mouse; details: ob/ob mice with diabetes, given orally
From the text: as §2, §3

[10] = equimolar doses of NDGA or metformin

`CC(Cc1ccc(O)c(O)c1)C(C)Cc1ccc(O)c(O)c1` (stereo not drawn) [NDGA, nordihydroguaiaretic acid] was tested, and the triglyceride levels ([1]; Fat/STZ rat, 40 mg/Kg once daily (QD), CMC delivery vehicle, 327 +/−25 without NDGA, no significant lowering) was 270 ± 26 mg/dL, the triglyceride levels ([1]; Fat/STZ rat, 40 mg/kg QD, Gelucire delivery vehicle, 674+/−84 without NDGA, significant lowering) was 312 ± 38 mg/dL and the glucose ([1]; Fat/STZ rat, 40 mg/kg QD, Gelucire vehicle) was 299 ± 25 mg/dL. For the same molecule, the glucose ([1]; Fat/STZ rat, 250 mg/kg QD, Gelucire vehicle) was 325 ± 26 mg/dL, the triglyceride ([1]; Fat/STZ rat, 250 mg/kg QD, Gelucire vehicle, versus 674+/−84) was 249 ± 42 mg/dL and the glucose levels ([1]; Fat/STZ rat, Gelucire vehicle, 497+/−22 without NDGA, significant lowering) was 380+/−28. For the same molecule, the glucose levels ([1]; Fat/STZ rat, PEG delivery vehicle, 393+/−20 without NDGA, no significant lowering) was 364+/−20, the glucose lowering ([1]; Fat/STZ rats, given orally) was “significantly lowers glucose” and the “free fatty acid (FFA) concentrations” value ([1]; fat-fed/STZ rats) was “decreases free fatty acid (FFA) concentrations”. For the same molecule, the plasma triglyceride lowering ([1]; fat-fed/STZ rats) was “significantly and dramatically lowered plasma triglycerides”, the glucose lowering ([1]; fat/STZ rat, single daily dose of 150 mg/kg) was “ineffective in lowering glucose” and the glucose lowering [2] was “significantly lowers glucose”. The “free fatty acid (FFA) concentrations” value [3] was “decreases free fatty acid (FFA) concentrations”, the plasma triglyceride lowering [3] was “significantly and dramatically lowered plasma triglycerides” and the “reduction of steady-state plasma glucose concentration (SSPG) versus vehicle control group” value ([4]; p<0.05) was “approximately 30%”. For the same molecule, the “reduction of steady-state plasma glucose concentration (SSPG) versus vehicle control group” value ([4]; p<0.05, listed as Masoprocol) was 30%, the “effect on muscle glycogen levels” value ([5]; compared to control) was “no effect” and the “reduction of liver glycogen concentrations” value ([5]; versus vehicle) was “approximately 75%”. For the same molecule, the “change in insulin concentrations” value [6, 10] was “without changing insulin concentration; also recorded: without any change in insulin concentrations”, the “glucose lowering in comparison to the vehicle control” value [6, 10] was “significantly lowered glucose” and the “triglyceride lowering in comparison to the vehicle control” value [6, 10] was “significantly lowered triglycerides”. For the same molecule, the “lowering of triglyceride concentrations in comparison to vehicle” value ([6]; equimolar dosing with metformin) was 80%, the triglyceride lowering ([7]; CMC, PEG or Gelucire vehicles, doses as low as 10 mg/kg twice per day) was “lowered triglyceride concentrations” and the triglyceride lowering ([7]; administered orally just once per day) was “lowered triglycerides”. The insulin concentrations ([7]; highest dose studied, 350 mg/kg twice daily) was “did not result in increased insulin concentrations”, the glucose lowering ([7]; once daily administration) was “generally ineffective at lowering glucose concentrations” and the “free fatty acid (FFA) concentrations” value ([8]; fructose-fed hypertriglyceridemic rats) was “decreases free fatty acid (FFA) concentrations”. The glucose lowering ([8]; fructose-fed rats, 80 mg/kg twice daily) was “did not lower glucose levels”, the triglyceride lowering ([8]; hypertriglyceridemic rat model, low doses of 10 and 20 mg/kg) was “triglyceride-lowering effects” and the glucose lowering [9] was “significantly lowers glucose”.

From patent publication US9198879B2, “Pharmacologically optimized multimodal drug delivery system for nordihydroguiaretic acid (NDGA)” (Napo Pharmaceuticals, Inc., priority 2011, dated 2015)
